For one experiment, the target named is T1, PRMT5/MEP50 complex (Homo sapiens, UniProt O14744).
T1 construct: purchased Reaction Biology Corporation
Kind of experiment: PRMT5:MEP50 FlashPlate Assay (histone H4 peptide methylation). The following applies: 40 nM H4 (1-15) peptide, 1 μM SAM. In kind it is biochemical. The protocol:
The PRMT5 inhibitory activity of compounds of the present invention was determined using a PRMT5: MEP50 FlashPlate Assay and a PRMT5: MEP50 HotSpot Assay (Reaction Biology Corporation).
The assay uses purified human, PRMT5 enzyme to convert S-adenosyl-L-[methyl-3H]methionine plus histone H4 L-arginine to S-adenosyl-L-homocysteine plus histone H4 [methyl-3H]-L-arginine. The assay was carried out using Streptavidin-coated FlashPlates (Perkin Elmer), which contained a scintillant embedded in the plastic of the plate. The histone H4 peptide substrate was conjugated with biotin, which binds to the streptavidin-coated well of the plate, placing the H4 peptide in close proximity to the side well and the scintillant. The transfer of the tritiated methyl group from S-adenosyl-L-[methyl-3H]methionine to the bound histone H4 peptide generated a radiolabeled histone H4, which was quantitated by measuring in a scintillation counter to determine the activity of PRMT5 enzyme in the presence and absence of compound. […] Briefly, compounds of the present invention were solubilized in 100% DMSO at a highest concentration of 10 mM. […] Control samples lacking compound, PRMT5/MEP50 complex or various reaction components also were prepared and processed in parallel with compound test samples. SAH was used as a positive control for assay validation. To measure PRMT5 inhibitory activity, 3 nM PRMT5/MEP50 complex (Reaction Biology Corporation) was preincubated with test compound in assay buffer containing 40 nM histone H4 peptide (amino acids 1-15)-Biotin conjugate for 20 min at room temperature. The enzymatic reaction was initiated by adding 1 μM tritiated S-adenosyl methionine (final concentration) and the reaction is allowed to proceed for 20 min. The reaction was stopped and the amount of bound, tritiated H4 peptide in each sample was determined using a scintillation counter.

The target in a further experiment is T2, PRMT5-MEP50 (Homo sapiens, UniProt O14744).
T2 construct: biotin (in vivo biotinylated)
Put plainly: SPR binding assay (PRMT5.MTA and PRMT5·SAM surfaces). The note with it: steady-state fit. How it is done: In vivo biotinylated PRMT5-MEP50 was diluted to […] in 25 mM Bicine pH 7.6, 100 mM NaCl, 1 mM TCEP, and 0.05% Tween-20 and injected at 5 μl/min flow rate into flow cell 2 (FC2) of a Series S Sensor Chip SA (Cytiva) in a Biacore T200 or in a Biacore 8K plus (Cytiva). SPR screening was performed in MTA running buffer (25 mM Bicine pH 7.6, 100 mM NaCl, 1 mM TCEP, 20 µM MTA, 0.05% Tween-20 and 2% DMSO). The biotinylated PRMT5-MEP50 surface was equilibrated with MTA running buffer for 12 hours prior to the start. […] Subsequently, compound titration was repeated in SAM-running buffer (25 mM Bicine pH 7.6, 100 mM NaCl, 1 mM TCEP, 20 μM SAM, 0.05% Tween-20, and 2% DMSO). […] After double referencing, the steady-state response was extracted for each fragment concentration and was fit to the Langmuir isotherm equation to determine the equilibrium dissociation constant (KD).

[1] abbreviates: PRMT5.MTA surface, MTA running buffer (20 µM MTA), read-out: KD MTA.
Setting [2] is: PRMT5·SAM surface, SAM running buffer (20 μM SAM), read-out: KD SAM.

Structures can show the parent of a compound that is named as a salt. Where two headings read alike, the source gives them in different places.

T2 sequence (O14744 whole entry): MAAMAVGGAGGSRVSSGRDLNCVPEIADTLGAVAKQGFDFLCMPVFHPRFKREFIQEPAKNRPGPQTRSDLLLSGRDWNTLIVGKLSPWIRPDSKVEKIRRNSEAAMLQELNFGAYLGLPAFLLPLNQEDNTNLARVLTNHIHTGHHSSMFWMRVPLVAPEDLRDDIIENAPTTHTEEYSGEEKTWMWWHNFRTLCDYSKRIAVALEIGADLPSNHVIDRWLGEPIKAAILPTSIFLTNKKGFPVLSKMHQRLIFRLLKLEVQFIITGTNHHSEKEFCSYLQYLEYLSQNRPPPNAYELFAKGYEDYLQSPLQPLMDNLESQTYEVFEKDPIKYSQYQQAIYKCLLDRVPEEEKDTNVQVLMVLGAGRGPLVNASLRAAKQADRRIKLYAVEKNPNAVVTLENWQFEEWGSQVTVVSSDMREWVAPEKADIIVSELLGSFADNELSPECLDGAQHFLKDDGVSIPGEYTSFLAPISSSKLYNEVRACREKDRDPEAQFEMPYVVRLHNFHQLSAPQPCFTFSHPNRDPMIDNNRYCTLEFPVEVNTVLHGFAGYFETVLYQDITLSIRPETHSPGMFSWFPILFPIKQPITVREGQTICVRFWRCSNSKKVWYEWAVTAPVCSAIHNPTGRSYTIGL
T2 sequence (Q9BQA1 whole entry partner): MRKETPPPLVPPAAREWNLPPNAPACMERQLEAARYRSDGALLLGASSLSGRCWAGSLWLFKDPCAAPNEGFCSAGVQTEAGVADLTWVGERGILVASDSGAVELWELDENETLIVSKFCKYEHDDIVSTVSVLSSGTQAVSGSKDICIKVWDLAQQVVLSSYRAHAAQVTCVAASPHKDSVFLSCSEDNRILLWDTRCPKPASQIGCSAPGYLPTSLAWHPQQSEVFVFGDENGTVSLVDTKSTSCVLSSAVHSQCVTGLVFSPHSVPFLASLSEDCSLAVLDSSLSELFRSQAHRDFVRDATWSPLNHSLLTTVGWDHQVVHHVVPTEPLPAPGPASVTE
T1 sequence (O14744 2-637 limits assumed): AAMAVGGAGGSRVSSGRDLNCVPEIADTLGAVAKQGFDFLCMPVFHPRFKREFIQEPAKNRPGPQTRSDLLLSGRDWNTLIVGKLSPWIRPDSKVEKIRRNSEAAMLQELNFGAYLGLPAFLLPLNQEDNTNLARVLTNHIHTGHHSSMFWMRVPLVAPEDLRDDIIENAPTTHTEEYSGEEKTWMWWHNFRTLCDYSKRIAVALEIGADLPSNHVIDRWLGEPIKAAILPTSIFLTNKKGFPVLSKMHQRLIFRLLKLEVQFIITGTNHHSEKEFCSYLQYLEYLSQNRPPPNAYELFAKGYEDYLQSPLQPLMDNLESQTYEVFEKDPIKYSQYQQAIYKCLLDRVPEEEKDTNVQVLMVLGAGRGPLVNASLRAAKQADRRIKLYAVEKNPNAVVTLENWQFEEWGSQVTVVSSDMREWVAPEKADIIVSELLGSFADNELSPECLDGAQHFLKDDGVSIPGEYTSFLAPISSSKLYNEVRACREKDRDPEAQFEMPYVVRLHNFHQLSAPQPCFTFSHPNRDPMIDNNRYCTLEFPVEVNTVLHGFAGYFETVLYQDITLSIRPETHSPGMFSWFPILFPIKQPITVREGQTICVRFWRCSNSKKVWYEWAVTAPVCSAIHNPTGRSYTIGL
T1 sequence (Q9BQA1 2-342 partner limits assumed): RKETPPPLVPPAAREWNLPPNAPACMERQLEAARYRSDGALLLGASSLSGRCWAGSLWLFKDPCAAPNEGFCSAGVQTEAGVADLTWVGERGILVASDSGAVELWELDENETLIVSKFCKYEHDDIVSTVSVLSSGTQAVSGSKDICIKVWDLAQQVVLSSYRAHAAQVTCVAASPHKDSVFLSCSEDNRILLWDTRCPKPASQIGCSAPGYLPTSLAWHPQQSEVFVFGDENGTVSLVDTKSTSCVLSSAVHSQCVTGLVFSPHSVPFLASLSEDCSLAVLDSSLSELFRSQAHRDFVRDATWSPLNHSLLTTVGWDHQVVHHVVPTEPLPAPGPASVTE

As for `Cn1ccc(-c2ccc3c(c2)nc(N)n3C)n1` [Example 1-2, 1-methyl-5-(1-methyl-1H-pyrazol-3-yl)-1H-benzo[d]imidazol-2-amine], the IC50 at PRMT5/MEP50 complex (IC50 + 2 μM MTA, plus 2 μM MTA) is greater than 300 µM. The dissociation constant Kd on PRMT5-MEP50 (setting [1]) is 49 µM; at PRMT5-MEP50 (setting [2]) it was 65.8 µM.
As to `Cc1ncc(CNc2cccc3c2nc(N)n3C)n1-c1ccccc1` [Example 1-12, 1-methyl-N4-((2-methyl-1-phenyl-1H-imidazol-5-yl)methyl)-1H-benzo[d]imidazole-2,4-diamine], on PRMT5/MEP50 complex (IC50 + 2 μM MTA, plus 2 μM MTA), the half-maximal inhibitory concentration (IC50) is greater than 300 µM. Besides, the dissociation constant Kd at PRMT5-MEP50 (setting [1]) came to 2.45 µM; at PRMT5-MEP50 (setting [2]) it was 19.7 µM.
The corresponding values for `Cn1c(N)nc2c(Nc3cnc4c(c3)CCCC4)cccc21` [Example 1-19, 1-methyl-N4-(5,6,7,8-tetrahydroquinolin-3-yl)-1H-benzo[d]imidazole-2,4-diamine] are greater than 300 µM, 74.2 µM and 203 µM.
With `CC(C)c1nc(Nc2cccc3c2nc(N)n3C)ns1` [Example 1-42, N4-(5-isopropyl-1,2,4-thiadiazol-3-yl)-1-methyl-1H-benzo[d]imidazole-2,4-diamine], the IC50 on PRMT5/MEP50 complex (IC50 + 2 μM MTA, plus 2 μM MTA) was greater than 300 µM. For the same compound, at PRMT5-MEP50 (setting [1]), the dissociation constant Kd was 20.8 µM.
As to `COc1cccc(CN(C)c2ccc3c(c2)nc(N)n3C)c1` [Example 1-48, N5-(3-methoxybenzyl)-N5,1-dimethyl-1H-benzo[d]imidazole-2,5-diamine], the dissociation constant (Kd) at PRMT5-MEP50 (setting [1]) was 39.1 µM; at PRMT5-MEP50 (setting [2]) it was 108 µM.
Consider `Cn1cc(-c2ccc3c(c2)nc(N)n3C)cn1` [Example 1-53, 1-methyl-5-(1-methyl-1H-pyrazol-4-yl)-1H-benzo[d]imidazol-2-amine], for which, on PRMT5/MEP50 complex (IC50 + 2 μM MTA, plus 2 μM MTA), the IC50 was greater than 300 µM. Moreover, the Kd at PRMT5-MEP50 (setting [1]) was determined as 44.6 µM; at PRMT5-MEP50 (setting [2]), 187 µM.
Taken in the same sequence, the figures for `Cn1nccc1-c1ccc2c(c1)nc(N)n2C` [Example 1-56, 1-methyl-5-(1-methyl-1H-pyrazol-5-yl)-1H-benzo[d]imidazol-2-amine] were greater than 300 µM, 24.5 µM and 51.9 µM.
For `CN(Cc1nnc2n1CCOC2)c1ccc2c(c1)nc(N)n2C` [Example 1-83, N5-((5,6-dihydro-8H-[1,2,4]triazolo[3,4-c][1,4]oxazin-3-yl)methyl)-N5,1-dimethyl-1H-benzo[d]imidazole-2,5-diamine], on PRMT5/MEP50 complex (IC50 + 2 μM MTA, plus 2 μM MTA), the IC50 is greater than 300 µM. The values for the Kd on PRMT5-MEP50 (setting [1]) and at PRMT5-MEP50 (setting [2]) were 0.089 µM and 41.8 µM, respectively.
For the compound `Cn1ncc(-c2cccc3c2nc(N)n3C)c1-c1ccccc1C#N` [Example 1-87, 2-(4-(2-amino-1-methyl-1H-benzo[d]imidazol-4-yl)-1-methyl-1H-pyrazol-5-yl)benzonitrile hydrochloride], the 50% inhibitory concentration (IC50) at PRMT5/MEP50 complex (IC50 + 2 μM MTA, plus 2 μM MTA) is 17.9 µM; at PRMT5/MEP50 complex (absence of MTA, read-out: IC50), greater than 300 µM. In addition, the Kd on PRMT5-MEP50 (setting [1]) came out at 0.512 µM; on PRMT5-MEP50 (setting [2]), 1.67 µM.
The corresponding values for `Cn1ncc(-c2ccc(Cl)c3c2nc(N)n3C)c1-c1c(F)cc2ccccc2c1C#N` [Example 2-2, 2-[4-(2-amino-7-chloro-1-methyl-benzimidazol-4-yl)-2-methyl-pyrazol-3-yl]-3-fluoro-naphthalene-1-carbonitrile hydrochloride] are 0.527 µM, 10.7 µM, 0.151 µM and 0.679 µM.
Taken in the same sequence, the figures for `Cn1c(N)nc2c(Nc3cnc4c(c3)CCCC4)ccc(Cl)c21` [Example 2-4, 7-chloro-1-methyl-N^4-(5,6,7,8-tetrahydroquinolin-3-yl)-1H-benzo[d]imidazole-2,4-diamine hydrochloride] were greater than 300 µM, greater than 300 µM, 26.8 µM and 40.9 µM.
Take `Cn1c(N)nc2c(C3CCOC3)ccc(Cl)c21` (stereo not shown) [Example 2-8, 7-chloro-1-methyl-4-tetrahydrofuran-3-yl-benzimidazol-2-amine hydrochloride]: the concentration for half-maximal inhibition (IC50) on PRMT5/MEP50 complex (IC50 + 2 μM MTA, plus 2 μM MTA) is greater than 300 µM; at PRMT5/MEP50 complex (absence of MTA, read-out: IC50) it was greater than 300 µM. Also, the Kd on PRMT5-MEP50 (setting [1]) turned out to be 24.7 µM.
Regarding `CN(c1cccnc1)c1cc(Cl)c2c(c1)nc(N)n2C` [Example 2-9, 7-chloro-N5-1-dimethyl-N5-(3-pyridyl)benzimidazole-2,5-diamine hydrochloride], the IC50 at PRMT5/MEP50 complex (IC50 + 2 μM MTA, plus 2 μM MTA) was greater than 300 µM; on PRMT5/MEP50 complex (absence of MTA, read-out: IC50), greater than 300 µM. Besides, the Kd on PRMT5-MEP50 (setting [1]) is 65.7 µM; at PRMT5-MEP50 (setting [2]), 175 µM.
With `Cn1c(N)nc2cc(Cc3cccnc3)cc(Cl)c21` [Example 2-10, 7-chloro-1-methyl-5-(3-pyridylmethyl)benzimidazol-2-amine hydrochloride], the half-maximal inhibitory concentration (IC50) was 97.6 µM on PRMT5/MEP50 complex (IC50 + 2 μM MTA, plus 2 μM MTA) and greater than 300 µM on PRMT5/MEP50 complex (absence of MTA, read-out: IC50). In addition, the Kd was 1.52 µM on PRMT5-MEP50 (setting [1]) and 48.4 µM at PRMT5-MEP50 (setting [2]).
Take `Cn1c(N)nc2cc(Cc3cccnc3)cc(C#N)c21` [Example 3-2, 2-amino-3-methyl-6-(3-pyridylmethyl)benzimidazole-4-carbonitrile]: the half-inhibitory concentration (IC50) on PRMT5/MEP50 complex (IC50 + 2 μM MTA, plus 2 μM MTA) is 110 µM; on PRMT5/MEP50 complex (absence of MTA, read-out: IC50), greater than 300 µM. Also, the dissociation constant Kd at PRMT5-MEP50 (setting [1]) stood at 0.513 µM; on PRMT5-MEP50 (setting [2]), 35.6 µM.
Taken in the same sequence, the figures for `Cn1c(N)nc2cc(Cc3ccccn3)cc(C#N)c21` [Example 3-3, 2-amino-3-methyl-6-(2-pyridylmethyl)benzimidazole-4-carbonitrile] were 17.6 µM, 134 µM, 0.187 µM and 2.75 µM.
Taken in the same sequence, the figures for `Cn1nc(-c2cc(C#N)c3c(c2)nc(N)n3C)c2cnccc21` [Example 3-5, 2-amino-3-methyl-6-(1-methylpyrazolo[4,3-c]pyridin-3-yl)benzimidazole-4-carbonitrile] were greater than 300 µM, greater than 300 µM, 1.14 µM and 2.77 µM.
The corresponding values for `Cn1cc(Cc2cc(C#N)c3c(c2)nc(N)n3C)cn1` [Example 3-6, 2-amino-3-methyl-6-[ (1-methylpyrazol-4-yl)methyl]benzimidazole-4-carbonitrile] are 44.4 µM, greater than 300 µM, 0.179 µM and 1.94 µM.
In the case of `Cn1nccc1Cc1cc(C#N)c2c(c1)nc(N)n2C` [Example 3-8, 2-amino-3-methyl-6-[ (2-methylpyrazol-3-yl)methyl]benzimidazole-4-carbonitrile], the half-maximal inhibitory concentration (IC50) on PRMT5/MEP50 complex (IC50 + 2 μM MTA, plus 2 μM MTA) is greater than 300 µM; on PRMT5/MEP50 complex (absence of MTA, read-out: IC50) it was greater than 300 µM. The figures for the equilibrium dissociation constant (Kd) on PRMT5-MEP50 (setting [1]) and on PRMT5-MEP50 (setting [2]) were 4.43 µM and 10.2 µM, respectively.
Turning to `Cn1c(N)nc2cc(Cc3ccc4ccncc4c3)cc(C#N)c21` [Example 3-9, 2-amino-6-(7-isoquinolylmethyl)-3-methyl-benzimidazole-4-carbonitrile], the half-inhibitory concentration (IC50) on PRMT5/MEP50 complex (IC50 + 2 μM MTA, plus 2 μM MTA) was found to be 16.9 µM; on PRMT5/MEP50 complex (absence of MTA, read-out: IC50), 219 µM. Further, the Kd was determined as 0.879 µM on PRMT5-MEP50 (setting [1]) and 3.67 µM on PRMT5-MEP50 (setting [2]).
In the case of `Cn1c(N)nc2cc(C(=O)c3cccnc3)cc(C#N)c21` [Example 3-16, 2-amino-3-methyl-6-(pyridine-3-carbonyl)benzimidazole-4-carbonitrile], the 50% inhibitory concentration (IC50) at PRMT5/MEP50 complex (IC50 + 2 μM MTA, plus 2 μM MTA) was greater than 300 µM; at PRMT5/MEP50 complex (absence of MTA, read-out: IC50), greater than 300 µM. Moreover, the Kd at PRMT5-MEP50 (setting [1]) amounted to 7.51 µM; at PRMT5-MEP50 (setting [2]), 23.6 µM.
`COc1c(Cc2cccnc2)cc(C#N)c2c1nc(N)n2C` [Example 3-22, 2-amino-7-methoxy-3-methyl-6-(3-pyridylmethyl)benzimidazole-4-carbonitrile hydrochloride]: the Kd was 16.3 µM on PRMT5-MEP50 (setting [1]) and 79.6 µM on PRMT5-MEP50 (setting [2]).
With `Cn1c(N)nc2c(Nc3cnc4c(c3)CCCC4)ccc(C#N)c21` [Example 3-30, 2-amino-1-methyl-4-((5,6,7,8-tetrahydroquinolin-3-yl)amino)-1H-benzo[d]imidazole-7-carbonitrile], the equilibrium dissociation constant (Kd) on PRMT5-MEP50 (setting [1]) stood at 16.9 µM; on PRMT5-MEP50 (setting [2]), 32.5 µM.
Consider `CCc1cc(-c2cnn(C)c2-c2ccccc2C#N)c2nc(N)n(C)c2c1` [Example 6-3, 2-[4-(2-amino-6-ethyl-1-methyl-benzimidazol-4-yl)-2-methyl-pyrazol-3-yl]benzonitrile hydrochloride], for which the IC50 amounted to 17.8 µM at PRMT5/MEP50 complex (IC50 + 2 μM MTA, plus 2 μM MTA) and 198 µM on PRMT5/MEP50 complex (absence of MTA, read-out: IC50).

What is called IC50 is the concentration at which inhibition is half-maximal. In general, Kd refers to the equilibrium constant for the complex coming apart.

(Values after patent publication US20260109709A1 (MIRATI THERAPEUTICS, INC., priority 2021, published 2026).)
